Results reported in patent publication US7528148B2, “Pyrazolo[3,4-B]pyridine compounds, and their use as phosphodiesterase inhibitors” (Glaxo Group Limited, priority 2002, dated 2009).

Tests used:
[1] = system: microfilaricidal activity; details: cited from earlier work
[2] = system: LPS-induced pulmonary neutrophilia and emesis in the conscious ferret; experiment: In vivo Assay 4: therapeutic index of orally-administered PDE4 inhibitors in the conscious ferret
Procedure: In vivo Assay 4. Evaluation of Therapeutic Index of Orally-administered PDE 4 Inhibitors in the Conscious Ferret
PDE4 inhibitors are prepared for oral p.o.) administration by dissolving in a fixed volume (1 ml) of acetone and then adding cremophor to 20% of the final volume. Acetone is evaporated by directing a flow of nitrogen gas onto the solution. Once the acetone is removed, the solution is made up to final volume with distilled water. LPS is dissolved in phosphate buffered saline.
Male ferrets (Mustela Pulorius Furo, weighing 1-2 kg) are transported and allowed to acclimatise for not less than 7 days. The diet comprises SDS diet C pelleted food given ad lib with Whiskers™ cat food given 3 times per week. The animals are supplied with pasteurised animal grade drinking water changed daily.
PDE4 inhibitors are administered orally (p.o.), using a dose volume of 1 ml/kg.
Ferrets are fasted overnight but allowed free access to water. The animals are orally dosed with vehicle or PDE 4 inhibitor using a 15 cm dosing needle that is passed down the back of the throat into the oesophagus. After dosing, the animals are returned to holding cages fitted with perspex doors to allow observation, and given free access to water. The animals are constantly observed and any emetic episodes (retching and vomiting) or behavioural changes are recorded. […]
Thirty minutes after oral dosing with compound or vehicle control, the ferrets are placed into sealed perspex containers and exposed to an aerosol of LPS (30 μg/ml) for 10 minutes. […] All emetic episodes and behavioural changes are recorded.
Six hours after LPS exposure the animals are killed by overdose of sodium pentobarbitone administered intraperitoneally. […] From this, the total number of neutrophils in the BAL sample is determined. […]
b) Emetic episodes—the number of vomits and retches are counted to determine the dose of PDE4 inhibitor that gives a 20% incidence of emesis (D20).
c) A therapeutic index (TI), using this assay, is then calculated for each PDE4 inhibitor using the following equation: […]

SMILES	microfilaricidal activity [1]	Ferret TI ([2]; D20/D50, p.o.)	D20 for emesis ([2]; ferret, p.o., dose giving 20% incidence of emesis) [mg/kg]	D50 for ferret neutrophilia ([2]; ferret, p.o., dose giving 50% inhibition of LPS-induced pulmonary neutrophilia) [mg/kg]
CC1Cc2ccccc2C(c2cnc3c(c(-c4ccccc4)nn3-c3ccccc3)c2O)=N1 (centres unmarked)	no significant microfilaricidal activity	–	–	–
Oc1c(C2=NCCc3ccccc32)cnc2c1c(-c1ccccc1)nn2-c1ccccc1 [4-hydroxy-1,3-diphenyl-5-(3′,4′-dihydroisoquinol-1′-yl)-pyrazolo[3,4-b]pyridine, reference compound]	no significant microfilaricidal activity	–	–	–
O=C(Nc1c(Cl)cncc1Cl)c1ccc(OC(F)F)c(OCC2CC2)c1 [roflumilast]	–	1.1	0.46	0.42
